Assay results published in patent publication US9765092B2, “Tricyclic piperidine compounds” (ACTELION PHARMACEUTICALS LTD, priority 2013, dated 2017).

Molecular target: human TPH1 (Homo sapiens (Human), UniProt P17752)
Test: Biochemical in vitro assay using fluorescence readout (TPH1 inhibition)
Conditions: human TPH1, fluorescence readout

human TPH1, sequence (P17752 whole entry): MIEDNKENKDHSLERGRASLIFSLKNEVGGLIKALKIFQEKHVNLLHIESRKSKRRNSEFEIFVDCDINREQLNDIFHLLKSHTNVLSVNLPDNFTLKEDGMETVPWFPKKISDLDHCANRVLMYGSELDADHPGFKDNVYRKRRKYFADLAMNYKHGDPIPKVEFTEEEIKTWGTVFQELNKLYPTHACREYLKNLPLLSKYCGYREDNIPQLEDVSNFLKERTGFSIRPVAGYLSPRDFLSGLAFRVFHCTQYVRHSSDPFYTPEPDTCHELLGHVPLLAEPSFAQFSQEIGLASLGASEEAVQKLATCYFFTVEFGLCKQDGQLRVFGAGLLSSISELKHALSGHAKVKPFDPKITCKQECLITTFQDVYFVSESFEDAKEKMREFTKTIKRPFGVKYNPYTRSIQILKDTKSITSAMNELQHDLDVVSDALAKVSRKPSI

Row | Structure (SMILES) | IC50
1 | CNS(=O)(=O)c1ccc(OCC(=O)N2CCc3nc4sc(C)nn4c3C2c2ccc(Cl)cc2F)c(Cl)n1 (centres unmarked) [Example 1.4.60, 6-chloro-5-(2-(5-(4-chloro-2-fluorophenyl)-2-methyl-7,8-dihydro-[1,3,4]thiadiazolo[2′,3′:2,3]imidazo[4,5-c]pyridin-6(5H)-yl)-2-oxoethoxy)-N-methylpyridine-2-sulfonamide] | 36 nM
2 | Cc1nn2c3c(nc2s1)CCN(C(=O)COc1ccc(S(=O)(=O)N(C)C)nc1Cl)C3c1ccc(Cl)cc1F (centres unmarked) [Example 1.4.61, 6-chloro-5-(2-(5-(4-chloro-2-fluorophenyl)-2-methyl-7,8-dihydro-[1,3,4]thiadiazolo[2′,3′:2,3]imidazo[4,5-c]pyridin-6(5H)-yl)-2-oxoethoxy)-N,N-dimethylpyridine-2-sulfonamide] | 37 nM
3 | Cc1nn2c3c(nc2s1)CCN(C(=O)COc1cccc2c1ccn2C)C3c1ccc(Cl)cc1F (centres unmarked) [Example 1.4.62, 1-(5-(4-chloro-2-fluorophenyl)-2-methyl-7,8-dihydro-[1,3,4]thiadiazolo[2′,3′:2,3]imidazo[4,5-c]pyridin-6(5H)-yl)-2-((1-methyl-1H-indol-4-yl)oxy)ethan-1-one] | 15 nM
4 | COc1ccc2c(OCC(=O)N3CCc4nc5sc(C)nn5c4C3c3ccc(Cl)cc3F)cc(C)nc2c1 (centres unmarked) [Example 1.4.63, 1-(5-(4-chloro-2-fluorophenyl)-2-methyl-7,8-dihydro-[1,3,4]thiadiazolo[2′,3′:2,3]imidazo[4,5-c]pyridin-6(5H)-yl)-2-((7-methoxy-2-methylquinolin-4-yl)oxy)ethan-1-one] | 65 nM
5 | Cc1nn2c3c(nc2s1)CCN(C(=O)COc1ccnc2c(C)c(Cl)ccc12)C3c1ccc(Cl)cc1F (centres unmarked) [Example 1.4.64, 1-(5-(4-chloro-2-fluorophenyl)-2-methyl-7,8-dihydro-[1,3,4]thiadiazolo[2′,3′:2,3]imidazo[4,5-c]pyridin-6(5H)-yl)-2-((7-chloro-8-methylquinolin-4-yl)oxy)ethan-1-one] | 255 nM
6 | Cc1nn2c3c(nc2s1)CCN(C(=O)COc1ccnc2c(F)ccc(F)c12)C3c1ccc(Cl)cc1F (centres unmarked) [Example 1.4.65, 1-(5-(4-chloro-2-fluorophenyl)-2-methyl-7,8-dihydro-[1,3,4]thiadiazolo[2′,3′:2,3]imidazo[4,5-c]pyridin-6(5H)-yl)-2-((5,8-difluoroquinolin-4-yl)oxy)ethan-1-one] | 31 nM
7 | Cc1nn2c3c(nc2s1)CCN(C(=O)COc1ccc(N2CCOCC2)cc1Cl)C3c1c(C)noc1C (centres unmarked) [Example 1.5.1, 2-(2-chloro-4-morpholinophenoxy)-1-(5-(3,5-dimethylisoxazol-4-yl)-2-methyl-7,8-dihydro[1,3,4]thiadiazolo[2′,3′:2,3]imidazo[4,5-c]pyridin-6(5H)-yl)ethanone] | 22 nM
8 | Cc1nn2c3c(nc2s1)CCN(C(=O)COc1ccc(N2CCOCC2)nc1Cl)C3c1c(C)noc1C (centres unmarked) [Example 1.5.2, 2-((2-chloro-6-morpholinopyridin-3-yl)oxy)-1-(5-(3,5-dimethylisoxazol-4-yl)-2-methyl-7,8-dihydro-[1,3,4]thiadiazolo[2′,3′:2,3]imidazo[4,5-c]pyridin-6(5H)-yl)ethanone] | 9 nM
9 | Cc1nn2c3c(nc2s1)CCN(C(=O)COc1ccc(F)cc1F)C3c1ccc(C2CC2)cc1F (centres unmarked) [Example 1.6.1, 1-(5-(4-cyclopropyl-2-fluorophenyl)-2-methyl-7,8-dihydro-[1,3,4]thiadiazolo[2′,3′:2,3]imidazo[4,5-c]pyridin-6(5H)-yl)-2-(2,4-difluorophenoxy)ethanone] | 13 nM
10 | Cc1nn2c3c(nc2s1)CCN(C(=O)COc1ccc(F)cc1Cl)C3c1ccc(C2CC2)cc1F (centres unmarked) [Example 1.6.2, 2-(2-chloro-4-fluorophenoxy)-1-(5-(4-cyclopropyl-2-fluorophenyl)-2-methyl-7,8-dihydro-[1,3,4]thiadiazolo [2′,3′:2,3]imidazo[4,5-c]pyridin-6(5H)-yl)ethanone] | 10 nM
11 | Cc1ccc(OCC(=O)N2CCc3nc4sc(C)nn4c3C2c2ccc(C3CC3)cc2F)c(C)n1 (centres unmarked) [Example 1.6.3, 1-(5-(4-cyclopropyl-2-fluorophenyl)-2-methyl-7,8-dihydro-[1,3,4]thiadiazolo[2′,3′:2,3]imidazo[4,5-c]pyridin-6(5H)-yl)-2-((2,6-dimethylpyridin-3-yl)oxy)ethanone] | 13 nM
12 | Cc1nn2c3c(nc2s1)CCN(C(=O)COc1ccc(C(F)(F)F)nc1)C3c1ccc(C2CC2)cc1F (centres unmarked) [Example 1.6.4, 1-(5-(4-cyclopropyl-2-fluorophenyl)-2-methyl-7,8-dihydro-[1,3,4]thiadiazolo[2′,3′:2,3]imidazo[4,5-c]pyridin-6(5H)-yl)-2-((6-(trifluoromethyl)pyridin-3-yl)oxy)ethanone] | 68 nM
13 | Cc1nn2c3c(nc2s1)CCN(C(=O)COc1cccnc1F)C3c1ccc(C2CC2)cc1F (centres unmarked) [Example 1.6.5, 1-(5-(4-cyclopropyl-2-fluorophenyl)-2-methyl-7,8-dihydro-[1,3,4]thiadiazolo[2′,3′:2,3]imidazo[4,5-c]pyridin-6(5H)-yl)-2-((2-fluoropyridin-3-yl)oxy)ethanone] | 89 nM
14 | Cc1nn2c3c(nc2s1)CCN(C(=O)COc1cccnc1C)C3c1ccc(C2CC2)cc1F (centres unmarked) [Example 1.6.6, 1-(5-(4-cyclopropyl-2-fluorophenyl)-2-methyl-7,8-dihydro-[1,3,4]thiadiazolo[2′,3′:2,3]imidazo[4,5-c]pyridin-6(5H)-yl)-2-((2-methylpyridin-3-yl)oxy)ethanone] | 25 nM
15 | CCc1cc(Cl)ccc1OCC(=O)N1CCc2nc3sc(C)nn3c2C1c1ccc(C2CC2)cc1F (centres unmarked) [Example 1.6.7, 2-(4-chloro-2-ethylphenoxy)-1-(5-(4-cyclopropyl-2-fluorophenyl)-2-methyl-7,8-dihydro-[1,3,4]thiadiazolo[2′,3′:2,3]imidazo[4,5-c]pyridin-6(5H)-yl)ethanone] | 7 nM
16 | CCc1nc(C)ccc1OCC(=O)N1CCc2nc3sc(C)nn3c2C1c1ccc(C2CC2)cc1F (centres unmarked) [Example 1.6.8, 1-(5-(4-cyclopropyl-2-fluorophenyl)-2-methyl-7,8-dihydro-[1,3,4]thiadiazolo[2′,3′:2,3]imidazo[4,5-c]pyridin-6(5H)-yl)-2-((2-ethyl-6-methylpyridin-3-yl)oxy)ethanone] | 23 nM
17 | CCc1ncccc1OCC(=O)N1CCc2nc3sc(C)nn3c2C1c1ccc(C2CC2)cc1F (centres unmarked) [Example 1.6.9, 1-(5-(4-cyclopropyl-2-fluorophenyl)-2-methyl-7,8-dihydro-[1,3,4]thiadiazolo[2′,3′:2,3]imidazo[4,5-c]pyridin-6(5H)-yl)-2-((2-ethylpyridin-3-yl)oxy)ethanone] | 457 nM
18 | Cc1nn2c3c(nc2s1)CCN(C(=O)COc1ccc(F)cc1C)C3c1ccc(C2CC2)cc1F (centres unmarked) [Example 1.6.10, 1-(5-(4-cyclopropyl-2-fluorophenyl)-2-methyl-7,8-dihydro-[1,3,4]thiadiazolo[2′,3′:2,3]imidazo[4,5-c]pyridin-6(5H)-yl)-2-(4-fluoro-2-methylphenoxy)ethanone] | 6 nM
19 | Cc1nn2c3c(nc2s1)CCN(C(=O)COc1cccnc1Cl)C3c1ccc(C2CC2)cc1F (centres unmarked) [Example 1.6.11, 2-((2-chloropyridin-3-yl)oxy)-1-(5-(4-cyclopropyl-2-fluorophenyl)-2-methyl-7,8-dihydro-[1,3,4]thiadiazolo[2′,3′:2,3]imidazo[4,5-c]pyridin-6(5H)-yl)ethanone] | 14 nM
20 | Cc1nn2c3c(nc2s1)CCN(C(=O)COc1ccc(S(N)(=O)=O)cc1)C3c1ccc(C2CC2)cc1F (centres unmarked) [Example 1.6.12, 4-(2-(5-(4-cyclopropyl-2-fluorophenyl)-2-methyl-7,8-dihydro-[1,3,4]thiadiazolo[2′,3′:2,3]imidazo[4,5-c]pyridin-6(5H)-yl)-2-oxoethoxy)benzenesulfonamide] | 390 nM
21 | Cc1nn2c3c(nc2s1)CCN(C(=O)COc1cccnc1C(F)(F)F)C3c1ccc(C2CC2)cc1F (centres unmarked) [Example 1.6.13, 1-(5-(4-cyclopropyl-2-fluorophenyl)-2-methyl-7,8-dihydro-[1,3,4]thiadiazolo[2′,3′:2,3]imidazo[4,5-c]pyridin-6(5H)-yl)-2-((2-(trifluoromethyl)pyridin-3-yl)oxy)ethanone] | 4 nM
22 | Cc1nn2c3c(nc2s1)CCN(C(=O)COc1ccc(S(N)(=O)=O)cc1C)C3c1ccc(C2CC2)cc1F (centres unmarked) [Example 1.6.14, 4-(2-(5-(4-cyclopropyl-2-fluorophenyl)-2-methyl-7,8-dihydro-[1,3,4]thiadiazolo[2′,3′:2,3]imidazo[4,5-c]pyridin-6(5H)-yl)-2-oxoethoxy)-3-methylbenzenesulfonamide] | 45 nM
23 | Cc1nn2c3c(nc2s1)CCN(C(=O)COc1ccc(N(C)C)nc1C)C3c1ccc(C2CC2)cc1F (centres unmarked) [Example 1.6.15, 1-(5-(4-cyclopropyl-2-fluorophenyl)-2-methyl-7,8-dihydro-[1,3,4]thiadiazolo[2′,3′:2,3]imidazo[4,5-c]pyridin-6(5H)-yl)-2-((6-(dimethylamino)-2-methylpyridin-3-yl)oxy)ethanone] | 6 nM
24 | Cc1nn2c3c(nc2s1)CCN(C(=O)COc1ccc(N2CCCC2)nc1C)C3c1ccc(C2CC2)cc1F (centres unmarked) [Example 1.6.16, 1-(5-(4-cyclopropyl-2-fluorophenyl)-2-methyl-7,8-dihydro-[1,3,4]thiadiazolo[2′,3′:2,3]imidazo[4,5-c]pyridin-6(5H)-yl)-2-((2-methyl-6-(pyrrolidin-1-yl)pyridin-3-yl)oxy)ethanone] | 13 nM
25 | Cc1nn2c3c(nc2s1)CCN(C(=O)COc1ccc(N2CCOCC2)nc1Cl)C3c1ccc(C2CC2)cc1F (centres unmarked) [Example 1.6.17, 2-((2-chloro-6-morpholinopyridin-3-yl)oxy)-1-(5-(4-cyclopropyl-2-fluorophenyl)-2-methyl-7,8-dihydro-[1,3,4]thiadiazolo [2′,3′:2,3]imidazo[4,5-c]pyridin-6(5H)-yl)ethanone] | 3 nM
26 | CCc1nc(C)ccc1OC1(C(=O)N2CCc3nc4sc(C)nn4c3C2c2ccc(C3CC3)cc2F)CC1 (centres unmarked) [Example 1.6.18, (5-(4-cyclopropyl-2-fluorophenyl)-2-methyl-7,8-dihydro-[1,3,4]thiadiazolo[2′,3′:2,3]imidazo[4,5-c]pyridin-6(5H)-yl)(1-((2-ethyl-6-methylpyridin-3-yl)oxy)cyclopropyl)methanone] | 186 nM
